4 substances from patent US20240336653A1, “PEPTIDE COMPOUND TARGETING ELASTIN-DERIVED PEPTIDES AND USE THEREOF” (Shenzhen Turier Biotech Co., Ltd., priority 2020, published 2024) can be followed below.

One assay concerns LX2 cells. The assay can be described thus: Activity evaluation in LX2 cell model (α-SMA protein expression). Type of assay: cell-based, human. The following applies: 1.0 μM and 10.0 μM, 48 hours incubation, GAPDH internal reference, FIG. 1. An excerpt: In LX2 cell model (which can be directly used as the evaluation model of hepatic fibrosis cells in vitro, because LX2 cells are human liver activated stellate cells. The LX2 cells are purchased from China Center for Type Culture Collection of the Chinese Academy of Sciences, Shanghai, China), the anti-fibrosis activities of peptide compounds 1-25 are preliminarily screened, and the expression of the marker α-SMA protein of myofibroblast activation is detected. The peptide compounds 1-25 is subjected to cell incubation for 48 hours by using two concentrations (1.0 μM and 10.0 μM). The control group is given the same volume of Dulbecco's modified Eagle medium (DMEM) (purchased from Gibco in the United States), and GAPDH (purchased from TransGen Biotech) as the internal reference, α-actin (α-SMA) is a symbolic feature that distinguishes myoblast cells from myofibroblasts.

Assay [1] has as its system CCl4 induced hepatic fibrosis. The assay can be described thus: Carbon tetrachloride (CCl4) induced hepatic fibrosis model in mice. Type of assay: in vivo, C57BL/6J mice. The conditions noted are these: 100.0 μg/kg intraperitoneal, 3 weeks of administration; for aggregation of inflammatory cells in the liver (HE staining) / hepatic fibrosis of mice: FIG. 2; for expression of Collagen I in the liver (immunohistochemistry): FIG. 3; for collagen deposition in the liver (Sirius red staining): FIG. 4. As for the experimental part:
Molding method: 72 male C57BL/6J mice, male, 18-22 g in weight and 8 weeks old, provided by Laboratory Animal Center, Sun Yat-sen University, randomly divided into 12 groups: 1) control group (Oil)+saline, intraperitoneal injection, n=6; 2) model control group (CCl4)+saline, intraperitoneal injection, n=6; administration of CCl4 to mice once every three days for 6 weeks; 3) model administration group (CCl4)+100.0 μg/kg series of compounds (group 10), intraperitoneal injection, n=6/group. The mice in the control group are injected with corn oil at the same volume and frequency according to the administration volume of 20% CCl4 at the weight of 5.0 μL/g. Administration frequency: administration of CCl4 to mice once every three days for 6 weeks. After 3 weeks of administration of CCl4 to mice in the model administration group, peptide compounds 1, 5, 7, 11, 12, 13, 17, 18, 21 and 22 are administered for 3 weeks from the 4th week. CCl4 and Oil are purchased from Shanghai Aladdin Biochemical Technology Co., Ltd.
In the CCl4 induced hepatic fibrosis model, the manifestations are: inflammatory cell infiltration around the central vein area, hydropic degeneration of hepatic cells, and increased accumulation of collagen fibers in the portal area and the hepatic interlobular septum. After three weeks of administration, the mice are treated and sampled. Blood is taken from the retrobulbar vein for detection of serological indicators, and liver tissue is taken for pathological analysis.
(§1) Hematoxylin-eosin (H&E) staining: paraffin embedded tissue sections are taken and baked at 60° C. for 1 h. Dewaxing and hydration: xylene for 20 minutes→xylene for 20 minutes→absolute alcohol for 15 minutes→absolute alcohol for 15 minutes→95% alcohol for 10 minutes→90% alcohol for 5 minutes→80% alcohol for 5 minutes. Staining: hematoxylin for 7 minutes→rinsing with tap water→differentiation with 1% hydrochloric acid alcohol for 1 s→rinsing with tap water→eosin staining for 15 s-20 s→rinsing with tap water. Dehydration and transparency: 75% alcohol for 1 s→85% alcohol for 1 s→95% alcohol for 1 s→100% alcohol for 1 s→xylene for Is→xylene for 1 s. The sections are aired for 30 minutes and sealed with gum.
Sirius red staining: drying and dewaxing; standing for 5.0 minutes in double distilled water; Sirius red staining for 60-80 minutes in a dark room; washing for 5 s with 0.5% glacial acetic acid; dehydration and transparency, sealing and taking photos.
Immunohistochemistry: drying sections, dewaxing, and then soaking in double distilled water for 5 minutes. Antigen retrieval: putting the shelf where pathological sections are placed into a beaker containing citric acid buffer (PH=6.0), and keeping it under high temperature and pressure for 15 minutes; taking out the beaker and letting it stand at room temperature until the temperature drops to the room temperature, then taking out the sections and putting them into 3.0% hydrogen peroxide for 10 minutes to block the endogenous peroxidase activity, and then washing them with PBS for three times, 5 minutes each time; sealing the tissues with 1.0% BSA for 1 h; removing 1.0% BSA, adding Collagen I antibody on the tissue according to the proportion recommended in the Description, and staying overnight at 4° C.; taking out the pathological sections next day, adding the second antibody with horseradish peroxidase after the room temperature is restored, incubating it at 37° C. for 60 minutes, and then use DAB (diaminobenzidine) ([…], USA) to develop color; and re-staining with hematoxylin staining solution, washing with tap water for 5 minutes, differentiating with 1% hydrochloric acid alcohol, then washing with tap water for 5 minutes again, dehydrating, airing, sealing, and taking photos (H&E staining solution and Sirius red staining solution are purchased from Sangon Biotech (Shanghai) Co., Ltd., and Collagen I antibody is purchased from CST Corporation).

For assay [2], the system named is bleomycin induced pulmonary fibrosis. The assay can be described thus: Bleomycin (BLM) induced pulmonary fibrosis model in mice. Type of assay: in vivo, C57BL/6J mice. The conditions noted are these: 150 μg/kg daily intraperitoneal, 14 days, FIG. 5; for degree of pulmonary fibrosis (H&E staining and Masson staining): compared with bleomycin control group; for fibronectin in pulmonary parenchyma (α-SMA and Collagen1 immunohistochemistry): compared with bleomycin group. As for the experimental part:
(§2) Molding method: 78 male C57BL/6J mice, 16-18 g in weight and 6-8 weeks old, provided by Laboratory Animal Center, Sun Yat-sen University, randomly divided into 13 groups: 1) normal control group (Normal), n=6; 2) sham-operated saline control group (Saline), n=6; 3) bleomycin model group (BLM), n=6; and 4) model treatment group: administration of 150 μg/kg series compounds to mice, 10 groups in total, n=6/group. On the 7th day after the operation of bleomycin induced pulmonary fibrosis in mice, mice in the model treatment group are treated with drugs (administration frequency: daily administration/150 μg/kg, intraperitoneal injection). Samples are taken 14 days after administration, and pathological observations are recorded.
(§3) The bleomycin (purchased from TCI Shanghai)) induced pulmonary fibrosis model manifests the following pathological features: bronchiectasis, hydropic degeneration of bronchial epithelial cells, obvious edema and widening of alveolar interstitium, and deposition of a large number of fibroblasts and collagen tissue. The alveolar structure almost completely disappears, filled with fibrous connective tissue, and accompanied by inflammatory cell infiltration. After 14 days of administration, the mice in the model treatment group are treated and sampled. Blood is taken from the retrobulbar vein for detection of serological indicators, and […] is taken for pathological analysis.
as §1, with “H&E” for “Hematoxylin-eosin (H&E)”, “1 s→xylene” for “Is→xylene”
Masson staining: drying and dewaxing; mordanting; adding celestine blue staining solution for 2-3 min, and washing with water; adding Mayer hematoxylin staining solution and washing with water; differentiating with acid alcohol differentiation liquid for several seconds, and washing with tap water; adding ponceau magenta staining solution and washing with distilled water; treating with phosphomolybdic acid solution; adding aniline blue staining solution for 5 min; treating with weak acid solution for 2 min; dehydration and transparency, airing and sealing with gum.
Immunohistochemistry: drying sections, dewaxing, and then soaking in double distilled water for 5 minutes. […]

The subject of another assay is MMP9. The assay can be described thus: ELISA of MMP9 in serum of mice of the bleomycin model. Type of assay: in vivo, C57BL/6J mice. The conditions noted are these: BLM mice, 150 μg/kg daily intraperitoneal, 14 days, FIG. 6-A. As for the experimental part: as §2, §3
(§4) The occurrence and development of fibrotic diseases are related to TGF-β and MMP-9 induced EMT process. Matrix metalloproteinases (MMPs) are matrix degrading proteases that degrade all components of extracellular matrix. They participate in the pathophysiological process of pulmonary fibrosis, play an important role in the abnormal remodeling of extracellular matrix and destruction of basement membrane, and promote the recruitment of inflammatory cells and fibroblasts. The increased expression of MMP-9 in pulmonary fibrosis animal models and patients, higher than the normal MMP-9 level, may destroy normal tissue structure and increase the migration of inflammatory cells to the disease site. In order to further explore the inhibitory mechanism of polypeptide drugs on bleomycin induced pulmonary fibrosis, we detect the expression of TGFβ, MMP9 cell factors in serum of mice in each group by ELISA. […] We speculate that its mechanism should be related to TGF-β.

Another assay deals with TGF-β. The assay can be described thus: ELISA of TGFβ in serum of mice of the bleomycin model. Type of assay: in vivo, C57BL/6J mice. The conditions noted are these: BLM mice, 150 μg/kg daily intraperitoneal, 14 days, FIG. 6-B. How it is done:
as §2, §3, §4

*1 amine or outer side, *2 acyl side, *3 side chain or, on linkers, in order; H or OH if unused. Primed or numbered codes have the meaning given here. [ ]: non-standard residue; d: D form. The star is where a group is joined. C20 diacid = O=C(O)CCCCCCCCCCCCCCCCCCC(=O)*; γGlu = O=C(O)[C@H](CCC(=O)[*:2])N[*:1]; Iva = CC[C@](C)(N)C(=O)O; PEG2′ = not defined here

As for “(PEG2-PEG2-γGlu-CO(CH2)18CO2H)-Val-Iva-Gly-Ser-Pro-Ser-Ala-Gln-Glu-Glu-Ala-Ser-Pro-Leu-NH2 ({C20 diacid-γGlu-PEG2′-PEG2′}-V[Iva]GSPSAQEEASPL-NH2) [Compound 11]”, the “inhibiting and improving the activity of α-SMA (expression of α-SMA protein)” value (shortened to “inhibiting and improving the activity”) in the assay with LX2 cells is “better effects on inhibiting and improving the activity of α-SMA”. In addition, in assay [1], the “aggregation of inflammatory cells in the liver (HE staining)” value (“aggregation of inflammatory cells” for short) was “significantly improved”, the “hepatic fibrosis of mice” value is “significantly improved”, the “expression of Collagen I in the liver (immunohistochemistry)” value (“expression of Collagen I in the liver” below) is recorded as “significant therapeutic improvement” and the “collagen deposition in the liver (Sirius red staining)” value (shortened to “collagen deposition in the liver”) is given as “significant therapeutic improvement”. Also, in assay [2], the “degree of pulmonary fibrosis (H&E staining and Masson staining)” value (shortened to “degree of pulmonary fibrosis”) is recorded as “significantly reduced”; the “fibronectin in pulmonary parenchyma (α-SMA and Collagen1 immunohistochemistry)” value (“fibronectin in pulmonary parenchyma” below) was “significantly less than that in bleomycin group”. The “concentration of MMP9 in serum of mice” value in the assay on MMP9 is “significantly reduce”. In addition, the “concentration of TGF-β in serum of mice” value with TGF-β is recorded as “significantly reduce”.
In the case of “(PEG2-PEG2-γGlu-CO(CH2)18CO2H)-Val-Val-Gly-Ser-Pro-Ser-Ala-Gln-Glu-Asp-Ala-Ser-Pro-Leu-NH2 ({C20 diacid-γGlu-PEG2′-PEG2′}-VVGSPSAQEDASPL-NH2) [Compound 12]”, in the assay with LX2 cells, the “inhibiting and improving the activity” value is “better effects on inhibiting and improving the activity of α-SMA”. Further, in assay [1], the “aggregation of inflammatory cells” value is on record as “significantly improved”, the “hepatic fibrosis of mice” value is “significantly improved”, the “expression of Collagen I in the liver” value is reported as “significant therapeutic improvement” and the “collagen deposition in the liver” value is recorded as “significant therapeutic improvement”. Also, in assay [2], the “degree of pulmonary fibrosis” value is “significantly reduced”; the “fibronectin in pulmonary parenchyma” value was “significantly less than that in bleomycin group”. Moreover, the “concentration of MMP9 in serum of mice” value in the assay on MMP9 is “significantly reduce”. In addition, in the assay on TGF-β, the “concentration of TGF-β in serum of mice” value is given as “significantly reduce”.
Turning to “Compound 17: cyclic peptide compound, head-to-tail amide (VVGSPSAQDEASPL; head-to-tail cyclisation; Compound 17)”, the “inhibiting and improving the activity” value in the assay with LX2 cells is “better effects on inhibiting and improving the activity of α-SMA”. In assay [1], the “aggregation of inflammatory cells” value is on record as “significantly improved”, the “hepatic fibrosis of mice” value is given as “significantly improved”, the “expression of Collagen I in the liver” value is listed as “significant therapeutic improvement” and the “collagen deposition in the liver” value is “significant therapeutic improvement”. Besides, in assay [2], the “degree of pulmonary fibrosis” value is on record as “significantly reduced”; the “fibronectin in pulmonary parenchyma” value is listed as “significantly less than that in bleomycin group”. For the same substance, the “concentration of MMP9 in serum of mice” value with MMP9 is “significantly reduce”. The “concentration of TGF-β in serum of mice” value in the assay on TGF-β is “significantly reduce”.
Consider “Compound 21: cyclic peptide compound, head-to-tail amide (cyclo(V[Iva]GSPSAQDEASPA); SMILES CC[C@]1(C)NC(=O)[C@H](C(C)C)NC(=O)[C@H](C)NC(=O)[C@@H]2CCCN2C(=O)[C@H](CO)NC(=O)[C@H](C)NC(=O)[C@H](CCC(=O)O)NC(=O)[C@H](CC(=O)O)NC(=O)[C@H](CCC(N)=O)NC(=O)[C@H](C)NC(=O)[C@H](CO)NC(=O)[C@@H]2CCCN2C(=O)[C@H](CO)NC(=O)CNC1=O)”, for which the “inhibiting and improving the activity” value in the assay on LX2 cells was “better effects on inhibiting and improving the activity of α-SMA”. Also, in assay [1], the “aggregation of inflammatory cells” value is “significantly improved”, the “hepatic fibrosis of mice” value is “significantly improved”, the “expression of Collagen I in the liver” value is reported as “significant therapeutic improvement” and the “collagen deposition in the liver” value was “significant therapeutic improvement”. In assay [2], the “degree of pulmonary fibrosis” value is “significantly reduced”; the “fibronectin in pulmonary parenchyma” value was “significantly less than that in bleomycin group”. Also, the “concentration of MMP9 in serum of mice” value with MMP9 is “significantly reduce”. Further, in the assay with TGF-β, the “concentration of TGF-β in serum of mice” value is listed as “significantly reduce”.
